Data: article PMC7315563, “Bioactive fluorenes. Part III: 2,7-dichloro-9H-fluorene-based thiazolidinone and azetidinone analogues as anticancer and antimicrobial against multidrug resistant strains agents” (BMC Chemistry, 2020)
Converted amounts (≈) assume the structure as drawn.

Columns and labels:
[1] = test system: Klebsiella pneumoniae (K. pneumoniae), multidrug resistant clinical isolate; test: agar well diffusion assay; format: cell-based; conditions: 24 h, 500 µg/mL of tested compound
From the text: (§1) All microbial strains were kindly provided from the department of Medical Microbiology and Immunology faculty of Medicine Assiut University, these clinical isolates were obtained from clinical cases of infections admitted to Assiut University hospital as urinary tract infections, corneal ulcers, bacterial and fungal pneumonia, otomycosis, oral thrush and wound infections.
(§2) The clinical isolates used were multidrug resistant strains, they were resistant to β lactam (penicillin, amoxacillin, oxacillin), cephalosporins (cefazolin, cefaclor and cefepime) and macrolides (erythromycin and clarithromycin), they included Gram positive bacteria as Staphylococcus aureus (S. aureus), Methicillin-resistant Staphylococcus aureus (MRSA), Streptococcus pneumoniae (S. pneumoniae), and Gram negative bacteria as Escherichia coli (E. coli), Klebsiella pneumoniae (K. pneumoniae), Pseudomonas aeruginosa (P. aeruginosa), and Acinetobacter baumannii (A. baumannii). The fungal strains that were tested are Aspergillus flavus (A. flavus), A. niger (A. niger) and Candida albicans (C. albicans).
(§3) The antimicrobial activity of the fluorene derivatives was initially evaluated by agar well diffusion assay. Mueller–Hinton agar (CM0337) was poured into Petri dishes at 50–60 °C and left to solidify for 15 min. Subsequently, overnight microbial suspensions of tested strains was adjusted to turbidity of 0.5 McFarland Standard, which equals to 1–2 × 10^8 CFU/mL for bacteria and 1–5 × 10^6 for fungi. The microbial inoculums were then diluted in 1:100 ratio in case of bacteria and 1:10 ratio in case of fungi in order to get 1–5 × 10^5 CFU/mL. a sterile cotton swab was dipped into the adjusted microbial suspension and the Mueller–Hinton agar plates were inoculated by evenly streaking cotton swab over the agar medium. Then wells with a diameter of 0.5 cm were cut in the medium with a sterile cork borer. Stock solutions of the flourene derivatives were diluted in DMSO 1% to get 500 μg/mL concentrations. The tested flourene derivatives and controls (50 μL) were dispensed into the wells. The plates were incubated for 24 h at 37 °C for bacteria and C. albicans while at 25 °C for A. falvus and A. niger. The diameters of zones of inhibition (ZOI) around the wells were measured in mm. Following control agents were used: positive control agents—vancomycin (50 μg/mL) for Gram positive bacteria, gentamicin (10 μg/mL) (for Gram negative bacteria) and fluconazole 25 μg/mL for fungi and negative control agent is 1% DMSO.

[2] = test system: Staphylococcus aureus (S. aureus), multidrug resistant clinical isolate; test: agar well diffusion assay; format: cell-based; conditions: Staphylococcus aureus; S. aureus; 500 µg/mL of tested compound; 24 h
From the text: as §1, §2, §3

[3] = test system: A549 human lung cancer cells; test: cell viability assay (MTT); format: cell-based; conditions: 24 h; for viability at 1 µg/mL: read-out: Validity (%) for sample concentrations (µg/mL) 1; for viability at 10 µg/mL: read-out: Validity (%) for sample concentrations (µg/mL) 10; for viability at 31.25 µg/mL: read-out: Validity (%) for sample concentrations (µg/mL) 31.25; for viability at 62.5 µg/mL: 62.50 µg/mL, read-out: Validity (%) for sample concentrations (µg/mL) 62.50; for viability at 125 µg/mL: read-out: Validity (%) for sample concentrations (µg/mL) 125; for viability at 250 µg/mL: read-out: Validity (%) for sample concentrations (µg/mL) 250; for viability at 500 µg/mL: read-out: Validity (%) for sample concentrations (µg/mL) 500; for viability at 1000 µg/mL: read-out: Validity (%) for sample concentrations (µg/mL) 1000
Procedure: WI-38 normal lung fibroblast cells, A549 lung cancer cells, and MDA-MB-231 breast cancer cells were obtained from VACSERA—Cell Culture Unit, Cairo, Egypt. The cell lines were originally obtained from the American Tissue Culture Collection (ATCC). WI-38, A549, and MDA-MB-231 cell lines were cultured in RPMI-1640 medium supplemented with 10% inactivate fetal bovine serum (FBS) and 1% penicillin/streptomycin were bought (Gibco, Invitrogen, CA). WI-38, A549, and MDA-MB-231 cells were seeded into 96-well plates (at a density of 5000 cells/well). […] Cell viability was then assessed using the MTT assay (Sigma Aldrich, St. Louis, MO, USA), and the absorbance was read at 570 nm using an ELISA microplate reader (Molecular Devices, Downingtown, PA, USA).

[4] = test system: MDA-MB-231 human breast cancer cells; test: cell viability assay (MTT); format: cell-based; conditions: 24 h; for viability at 1 µg/mL: read-out: Validity (%) for sample concentrations (µg/mL) 1; for viability at 10 µg/mL: read-out: Validity (%) for sample concentrations (µg/mL) 10; for viability at 31.25 µg/mL: read-out: Validity (%) for sample concentrations (µg/mL) 31.25; for viability at 62.5 µg/mL: read-out: Validity (%) for sample concentrations (µg/mL) 62.5; for viability at 125 µg/mL: read-out: Validity (%) for sample concentrations (µg/mL) 125; for viability at 250 µg/mL: read-out: Validity (%) for sample concentrations (µg/mL) 250; for viability at 500 µg/mL: read-out: Validity (%) for sample concentrations (µg/mL) 500
Procedure: (§4) WI-38 normal lung fibroblast cells, A549 lung cancer cells, and MDA-MB-231 breast cancer cells were obtained from VACSERA—Cell Culture Unit, Cairo, Egypt. The cell lines were originally obtained from the American Tissue Culture Collection (ATCC). WI-38, A549, and MDA-MB-231 cell lines were cultured in RPMI-1640 medium supplemented with 10% inactivate fetal bovine serum (FBS) and 1% penicillin/streptomycin were bought (Gibco, Invitrogen, CA). WI-38, A549, and MDA-MB-231 cells were seeded into 96-well plates (at a density of 5000 cells/well). On the following day, cells were treated with different concentrations (0, 1, 10, 31.25, 62.5, 125, 250, 500 µg/mL) of 16 fluorene derivatives in fresh medium and incubated for another 24 h. Cell viability was then assessed using the MTT assay (Sigma Aldrich, St. Louis, MO, USA), and the absorbance was read at 570 nm using an ELISA microplate reader (Molecular Devices, Downingtown, PA, USA).

[5] = test system: WI-38 human normal fibroblast cells; test: cell viability assay (MTT); format: cell-based; conditions: 24 h; for viability at 31.25 µg/mL: read-out: Validity (%) for sample concentrations (µg/mL) 31.25; for viability at 62.5 µg/mL: 62.50 µg/mL, read-out: Validity (%) for sample concentrations (µg/mL) 62.50; for viability at 125 µg/mL: read-out: Validity (%) for sample concentrations (µg/mL) 125; for viability at 250 µg/mL: read-out: Validity (%) for sample concentrations (µg/mL) 250; for viability at 500 µg/mL: read-out: Validity (%) for sample concentrations (µg/mL) 500
Procedure: as §4

[6] = test system: Escherichia coli (E. coli), multidrug resistant clinical isolate; test: agar well diffusion assay; format: cell-based; conditions: 24 h, 500 µg/mL of tested compound
From the text: as §1, §2, §3

Row | Structure (SMILES) | viability at 1 µg/mL [3] [%] | viability at 10 µg/mL [3] [%] | viability at 31.25 µg/mL [3] [%] | viability at 62.5 µg/mL [3] [%] | viability at 125 µg/mL [3] [%] | viability at 250 µg/mL [3] [%] | viability at 500 µg/mL [3] [%] | viability at 1000 µg/mL [3] [%] | IC50 [3] [mg/L] | melting point [°C] | viability at 1 µg/mL [4] [%] | viability at 10 µg/mL [4] [%] | viability at 31.25 µg/mL [4] [%] | viability at 62.5 µg/mL [4] [%] | viability at 125 µg/mL [4] [%] | viability at 250 µg/mL [4] [%] | viability at 500 µg/mL [4] [%] | IC50 [4] [mg/L] | viability at 31.25 µg/mL [5] [%] | viability at 62.5 µg/mL [5] [%] | further results
1 | O=C1CSC(c2ccnc3ccccc23)N1c1nc(-c2cc(Cl)cc3c2-c2ccc(Cl)cc2C3)cs1 (centres unmarked) [5n, 3-(4-(2,7-Dichloro-9H-fluoren-4-yl)thiazol-2-yl)-2-(quinolin-4-yl)thiazolidin-4-one] | 94.2 | 91.2 | 83.1 | 78.6 | 70.7 | 58.9 | 27.3 | 8.02 | 380 (≈ 695 µM) | 204 to 206 | 98.7 | 91 | 92.8 | 90.6 | 76.8 | 58.7 | 27.2 | 315 (≈ 576 µM) | 54.3 | 51.5 | zone of inhibition at 500 µg/mL [1]: 5 mm; zone of inhibition at 500 µg/mL [2]: 7 mm; viability at 125 µg/mL [5]: 50.8%; viability at 250 µg/mL [5]: 46.4%; viability at 500 µg/mL [5]: 40.5%; IC50 [5]: 130 mg/L (≈ 238 µM)
2 | O=C1C(Cl)C(c2ccccc2)N1c1nc(-c2cc(Cl)cc3c2-c2ccc(Cl)cc2C3)cs1 (centres unmarked) [6a, 3-Chloro-1-(4-(2,7-dichloro-9H-fluoren-4-yl)thiazol-2-yl)-4-phenylazetidin-2-one] | 98.6 | 89.1 | 79.2 | 75.9 | 70.3 | 30.7 | 20.8 | 14.4 | 185 (≈ 372 µM) | 118 to 120 | 99.4 | 92.4 | 90.7 | 83.1 | 78.3 | 69.6 | 63.2 | > 500 | 71.1 | 66.1 | zone of inhibition at 500 µg/mL [6]: 13 mm; zone of inhibition at 500 µg/mL [2]: 5 mm; viability at 125 µg/mL [5]: 59.1%; viability at 250 µg/mL [5]: 49.1%; viability at 500 µg/mL [5]: 47.1%; IC50 [5]: 241 mg/L (≈ 484 µM)
3 | COc1ccc(C2C(Cl)C(=O)N2c2nc(-c3cc(Cl)cc4c3-c3ccc(Cl)cc3C4)cs2)cc1 (centres unmarked) [6b, 3-Chloro-1-(4-(2,7-dichloro-9H-fluoren-4-yl)thiazol-2-yl)-4-(4-methoxyphenyl)azetidin-2-one] | 95.7 | 86.9 | 85.8 | 83.5 | 77.8 | 68.2 | 35.2 | 36.3 | 338 (≈ 640 µM) | 110 to 112 | 95.9 | 93.4 | 89.7 | 84.2 | 79.8 | 72.9 | 68.9 | > 500 | 94.1 | 87.9 | zone of inhibition at 500 µg/mL [6]: 12 mm; viability at 125 µg/mL [5]: 71.6%; viability at 250 µg/mL [5]: 62.6%; viability at 500 µg/mL [5]: 57.7%; IC50 [5]: > 500 mg/L
4 | O=C1C(Cl)C(C=Cc2ccccc2)N1c1nc(-c2cc(Cl)cc3c2-c2ccc(Cl)cc2C3)cs1 (centres unmarked) [6i, 3-Chloro-1-(4-(2,7-dichloro-9H-fluoren-4-yl)thiazol-2-yl)-4-styrylazetidin-2-one] | 96.6 | 91.9 | 89.4 | 78.1 | 76.3 | 67.9 | 53.3 | 49.4 | 801 (≈ 1530 µM) | 110 to 112 | 94.2 | 89.1 | 66.8 | 55.9 | 49.2 | 24.3 | 18.2 | 120 (≈ 229 µM) | 83.1 | 76.5 | zone of inhibition at 500 µg/mL [1]: 3 mm; zone of inhibition at 500 µg/mL [6]: 12 mm; viability at 125 µg/mL [5]: 56.5%; viability at 250 µg/mL [5]: 49.2%; viability at 500 µg/mL [5]: 39.2%; IC50 [5]: 240 mg/L (≈ 458 µM)
5 | O=C1CSC(c2ccncc2)N1c1nc(-c2cc(Cl)cc3c2-c2ccc(Cl)cc2C3)cs1 (centres unmarked) [5m, 3-(4-(2,7-Dichloro-9H-fluoren-4-yl)thiazol-2-yl)-2-(pyridin-4-yl)thiazolidin-4-one] | 94 | 92.5 | 70.7 | 67.5 | 64.5 | 56.5 | 37.3 | 20.1 | 357 (≈ 719 µM) | 110 to 112 | 97.3 | 89.5 | 85.4 | 88.3 | 76.9 | 65.6 | 50.6 | 505 (≈ 1020 µM) | 68.5 | 64.6 | zone of inhibition at 500 µg/mL [6]: 8 mm; zone of inhibition at 500 µg/mL [2]: 5 mm; viability at 125 µg/mL [5]: 42.3%; viability at 250 µg/mL [5]: 40.3%; viability at 500 µg/mL [5]: 26.5%; IC50 [5]: 92 mg/L (≈ 185 µM)
6 | O=C1CSC(c2ccc[nH]2)N1c1nc(-c2cc(Cl)cc3c2-c2ccc(Cl)cc2C3)cs1 (centres unmarked) [5l, 3-(4-(2,7-Dichloro-9H-fluoren-4-yl)thiazol-2-yl)-2-(1H-pyrrol-2-yl)thiazolidin-4-one] | 96.5 | 93.6 | 75.4 | 72.2 | 68 | 62.9 | 51.9 | 41.3 | 577 (≈ 1190 µM) | 124 to 126 | 99.1 | 87.6 | 79.7 | 76.2 | 72.4 | 64.6 | 57.8 | > 500 | 70.5 | 60.6 | zone of inhibition at 500 µg/mL [6]: 6 mm; zone of inhibition at 500 µg/mL [2]: 9 mm; viability at 125 µg/mL [5]: 57.2%; viability at 250 µg/mL [5]: 48.1%; viability at 500 µg/mL [5]: 39.5%; IC50 [5]: 223 mg/L (≈ 460 µM)
